The NIST ThermoML archive (doi:10.1016/j.tca.2011.11.009)

Details: Liquid, Vibrating tube method

CCCCn1cc[n+](C)c1.N#C[S-] [1-butyl-3-methylimidazolium thiocyanate]
mass density [kg/m3]
Details | 298.15 K | 308.15 K | 318.15 K | 328.15 K | 338.15 K
100 kPa | 1070.18 | 1063.9 | 1058.33 | 1052.54 | 1046.94
200 kPa | 1070.23 | 1063.94 | 1058.37 | 1052.59 | 1047.03
300 kPa | 1070.25 | 1064.03 | 1058.41 | 1052.62 | 1047.05
400 kPa | 1070.29 | 1064.09 | 1058.45 | 1052.69 | 1047.1
500 kPa | 1070.32 | 1064.13 | 1058.5 | 1052.69 | 1047.14
600 kPa | 1070.36 | 1064.18 | 1058.54 | 1052.75 | 1047.17
800 kPa | 1070.43 | 1064.29 | 1058.61 | 1052.82 | 1047.27
1000 kPa | 1070.5 | 1064.35 | 1058.68 | 1052.94 | 1047.33
2000 kPa | 1070.88 | 1064.73 | 1059.07 | 1053.31 | 1047.74
4000 kPa | 1071.63 | 1065.48 | 1059.88 | 1054.11 | 1048.56
6000 kPa | 1072.37 | 1066.26 | 1060.63 | 1054.91 | 1049.39
8000 kPa | 1073.11 | 1067.02 | 1061.43 | 1055.68 | 1050.19
10000 kPa | 1073.83 | 1067.77 | 1062.18 | 1056.48 | 1050.99
